# According to patent publication US9517243B2, “Beta-mannosylceramide and stimulation of NKT cell anti-tumor immunity” (The United States of America, as represented by the …, priority 2010, dated 2016):
# What was measured:
# [1] = test system: CT26 lung metastasis; experiment: In vivo lung metastasis assay, CT26 colon carcinoma; set-up: species or system BALB/c mice; conditions: for Tumor protection in IFN-γ knockout mice: IFN-γ−/− BALB/c; for Effect of NOS inhibition (L-NAME vs D-NAME) on tumor protection: WT mice, 0.2 mg L-NAME i.p., FIG. 6, 10A; for Rank order of tumor protection: dose of 50 pmoles; for Effect of TNF-α blockade (TNF-αR-Fc, etanercept) on protection: 100 μg etanercept every other day, FIG. 10C
# Method: (§1) In vivo lung metastasis assay. 5×10^5 CT26 cells in 0.2 ml PBS were injected i.v. into the tail vein. Glycolipid or vehicle control (0.00025% Tween 20) was injected i.p. (in 0.2 ml PBS) within one hour after tumor challenge. Mice were sacrificed 12-16 days after tumor challenge, and lungs were stained and fixed and metastases were enumerated as previously described (Park, J. M., et al., International J. of Cancer, 114:80-87 (2004)). The same protocol was used for the B16F10 cell line, except that lungs were perfused with PBS instead of ink before removal.
# For CD8^+T and NK cell depletion, mice were treated with anti-CD8 (200 μg/injection), anti-asialo GM1 (25 μl/injection), or control antibodies 1 day prior to tumor challenge, the day of challenge, and 5 and 10 days following tumor challenge. CD8^+T and NK cell depletion of >90% was confirmed by flow cytometric staining for CD8 (clone 53-6.7, BD Biosciences, Rockville, Md.) and pan-NK cell marker (clone DX5, eBioscience, San Diego, Calif.) at the conclusion of the experiment. For Gr-1^+ cell depletion, mice were injected i.p. with 100, 50, or 1 μg anti-Gr-1 antibody, 16 and 40 hours after tumor challenge. CD11b^+Gr-1^high cell depletion of >99% and CD11b^+Gr-1^intermediate cell depletion of >80% by 100 μg of anti-Gr-1 antibodies, was confirmed by flow cytometric staining for CD11b (clone M1/70, eBioscience), Gr-1 (clone RB6-8C5, BD Biosciences), Ly-6C (clone AL-21, BD Biosciences) and Ly6G. (clone 1A8, BD Biosciences). Where indicated, mice received 0.2 mg L-NAME or D-NAME i.p. twice per day on the day of tumor challenge, the day after tumor challenge, and once daily for 2 weeks after tumor injection. Blockade of TNF-α was achieved by administration of 100 μg of etanercept every other day, beginning immediately following tumor challenge, per the method of Fichtner-Feigl, S., et al., Cancer Res., 68:3467-3475 (2008). For PPARγ inhibition, mice were treated 0.15 mg/ml GW9662 (200 μL i.p.) or vehicle control (0.5% DMSO in PBS) immediately following tumor challenge, and then 30 minutes prior to glycolipid administration, via the method of Coste, A., et al., J. Immunol., 180:4939-4947 (2008).
# [2] = test system: BALB/c splenocytes; experiment: In vitro cytokine assay (ELISA); format: cell-based, BALB/c mice; conditions: 48 hours; for IFN-γ production in vitro / IL-4 production in vitro / IL-13 production in vitro: ELISA; for IFN-γ production in vitro: FIG. 7A; for IL-4 production in vitro: FIG. 7B; for IL-13 production in vitro: FIG. 7C
# Method: In vitro cytokine assay. Splenocytes (8×10^5/well of 96 well plates) from BALB/c mice were stimulated with glycolipid or solvent control for 48 hours. Supernatants were collected, and the concentration of IFN-γ, IL-4, or IL-13 was determined by ELISA.
# [3] = test system: IFN-γ, IL-4, IL-13, IL-12 (p70), and TNF-α in plasma; experiment: In vivo cytokine assay (plasma, multiplex); set-up: species or system BALB/c mice; conditions: 0-24 hours; for IL-4 in plasma: FIG. 8C; for IL-13 in plasma: FIG. 8E; for IFN-γ in plasma: 50 pmoles i.p. after CT26 i.v., FIG. 8A
# Method: FIGS. 8A-8E show graphs where the cytokine production induced by the glycolipid panel was tested in vivo. BALB/c mice were challenged with CT26 (5×10^5) i.v. followed by 50 pmoles of glycolipid or vehicle control i.p. at time 0. Mice were bled retroorbitally at 0, 3, 6, 12, and 24 hours, and the amount of IFN-γ (8A), TNF-α (8B), IL-4 (8C), IL-12 (p70) (8D), and IL-13 (8E) in plasma was determined. Each data point represents mean±SD of triplicates. […] Little cytokine production was detected following OCH and AH04-2 administration. β-ManCer induced very little cytokine production except for some IL-12 and TNF-α.
# In vivo cytokine assay. The concentration of IFN-γ, IL-4, IL-13, IL-12 (p70), and TNF-α in plasma samples was determined by MILLIPLEX cytokine multiplex immunoassay kit (Millipore, Billerica, Mass.) using a Bio-Plex system (Bio-Rad, Hercules, Calif.) according to manufacturer's instructions.
# [4] = test system: iNKT cells; experiment: In vitro iNKT activation (CFSE dilution, splenocytes); format: cell-based, mice; conditions: for Proliferation of iNKT cells (CFSE dilution): 3.5-day stimulation of mouse splenocytes, FIG. 3
# Method: In vitro iNKT activation. Splenocytes were harvested from mice (n=3), and erythrocytes were depleted with ACK Lysis Buffer (Lonza, Walkersville, Md.). Cells were labeled with 0.1 μM CFSE (Invitrogen, Carlsbad, Calif.) for 15 minutes at room temperature. Labeled cells (4×10^6 cells/well of 24-well plate) were stimulated for 3.5 days with glycolipid or vehicle control. At the end of the culture, cells were harvested and stained with PBS57-loaded CD1d tetramer (NIH Tetramer Facility) and anti-CD3 (clone 145-2C11, Biolegend). The fluorescence of stained cells was measured by FACSCalibur (BD Biosciences), and data were analyzed by Flowjo (Tree Star, Inc., Ashland, Oreg.).
# [5] = test system: activated NKT cells; experiment: Anergy: re-stimulation of splenocytes one month after in vivo treatment; set-up: species or system mice; conditions: for IFN-γ production on re-stimulation, compared to cells from vehicle-treated mice: 48 hours of re-stimulation, FIG. 13B; for Splenocyte proliferation on re-stimulation, compared to cells from vehicle-treated mice: re-stimulation with α-GalCer or β-ManCer, 3H-thymidine, 72-hour culture, FIG. 13A
# Method: FIG. 13A is a graph showing splenocyte proliferation measured by ^3H-thymidine incorporation during the final 8 hours of a 72-hour culture after being re-stimulated in culture. Pretreatment with α-GalCer induces anergy but pretreatment with β-ManCer induces much less anergy.
# FIG. 13B is a graph showing the amount of IFN-γ produced by the splenocyte culture after 48 hours of re-stimulation.
# It is known that α-GalCer induces strong anergy of activated NKT cells for over a month after in vivo stimulation. […] Mice were treated with α-GalCer, β-ManCer, or vehicle, and one month later, splenocytes were re-stimulated, and the degree of activation was measured by proliferation and IFN-γ production.
# [6] = test system: B16F10 melanoma lung metastasis; experiment: In vivo lung metastasis assay, B16F10 melanoma; conditions: C57BL/6 mice, dose titration; FIG. 12
# Method: as §1
# [7] = test system: 24.9.E NKT cell hybridoma; experiment: Plate-bound mCD1d hybridoma stimulation assay, 24.9.E; format: cell-based, mouse
# Method: (§2) Plate-bound mCD1d hybridoma stimulation assay. Protocol was modified from that of Gumperz et al. (Gumperz, J. E., et al., Immunity, 12(2):211-221 (2000)). mCD1d dimer/Ig fusion protein (BD Biosciences) was incubated with the indicated concentrations of glycolipid in pH 5 sodium acetate buffer containing 0.01% Tween20 and 45 μg/ml saposin C (provided by Nico Tjandra and Motoshi Suzuki [both from National Heart, Lung, and Blood Institute, NIH, Bethesda, Md., USA]) overnight at 37° C. The mCD1d dimers loaded with glycolipid were loaded onto 96-well Protein G Plates (Pierce, Rockford, Ill.) and incubated for 48 hours at 37° C. The plates were washed with PBS and tissue culture media to remove anything not coated on the plates. 1×10^5 24.9. E or DN32.D3 iNKT hybridoma cells were added to each well and incubated at 37° C. and 5% CO2 for 24 hours. Supernatants were collected and analyzed for IL-2 by ELISA.
# [8] = test system: DN32.D3 NKT cell hybridoma; experiment: Plate-bound mCD1d hybridoma stimulation assay, DN32.D3; format: cell-based, mouse
# Method: as §2
# [9] = test system: iNKT cells; experiment: Upregulation of activation markers CD25 and CD69 on iNKT cells; format: cell-based; conditions: mouse splenocytes stimulated overnight; data not shown
smiles,measurement,setting,value
"CCCCC/C=C\C/C=C\CCCCCCCCCC(=O)N[C@@H](CO[C@H]1O[C@H](CO)[C@H](O)[C@H](O)[C@H]1O)[C@H](O)[C@H](O)CCCCCCCCCCCCCC [C20:2, reference compound]",Tumor protection in IFN-γ knockout mice,"[1]; 50 pmoles, FIG. 9A",completely failed to induce any tumor protection
same,Effect of NOS inhibition (L-NAME vs D-NAME) on tumor protection,[1]; 50 pmoles glycolipid,no effect
same,Rank order of tumor protection,[1]; FIG. 2D,similarly protective
same,IFN-γ production in vitro,[2],lower IFN-γ level
same,IL-4 production in vitro,[2],higher amounts
same,IL-13 production in vitro,[2],higher amounts
same,IL-4 in plasma,[3]; 50 pmoles i.p.,increased
same,IL-13 in plasma,[3]; 50 pmoles i.p.,increased
CCCCCCCCCCCCCCCCCCCCCCCC(=O)N[C@@H](COC1OC(CO)C(O)C(O)C1O)[C@H](O)[C@H](O)CCCCC (stereo partly drawn) [OCH],Rank order of tumor protection,[1]; FIG. 2D,significantly less tumor killing
same,IFN-γ production in vitro,[2],lower IFN-γ level
same,IL-4 production in vitro,[2],higher amounts
same,IL-13 production in vitro,[2],higher amounts
same,Cytokine production in vivo (overall),[3]; 50 pmoles i.p.,Much less cytokine production
"CCCCCCCCCCCCCCCCCCCCCCCCCC(=O)N[C@@H](CO[C@H]1O[C@H](CO)[C@H](O)[C@H](O)[C@H]1O)[C@H](O)[C@H](O)CCCCCCCCCCCCCC [α-GalCer, α-galactosylceramide, reference compound]","Effect of TNF-α blockade (TNF-αR-Fc, etanercept) on protection",[1],no effect
same,Tumor protection in IFN-γ knockout mice,"[1]; 50 pmoles, FIG. 9A",completely failed to induce any tumor protection
same,Effect of NOS inhibition (L-NAME vs D-NAME) on tumor protection,[1]; 50 pmoles glycolipid,no effect
same,Rank order of tumor protection,[1]; FIG. 2D,greatest protection
same,Potency relative to β-ManCer,"[1]; results at the 5 pmole dose, FIG. 2D",about a log more potent
same,Proliferation of iNKT cells (CFSE dilution),[4],44%
same,IFN-γ production in vitro,[2],greatest IFN-γ production
same,"IFN-γ production on re-stimulation, compared to cells from vehicle-treated mice",[5],severely suppressed
same,"Splenocyte proliferation on re-stimulation, compared to cells from vehicle-treated mice",[5],severely suppressed
same,IFN-γ in plasma,[3],most IFN-γ
"CCCCCCCCCCCCCCCCCCCCCCCCCC(=O)N[C@@H](COC1OC(CO)C(O)C(O)C1O)[C@H](O)[C@H](O)CCCCCCCCCCCCCC (stereo partly drawn) [β-ManCer, 2-hexacosanoylamino-1-O-β-mannopyranosyl-D-ribo-1,3,4-octadecanetriol]","Effect of TNF-α blockade (TNF-αR-Fc, etanercept) on protection",[1],completely reversed the protection
same,Effect of PPARγ inhibition with GW 9662 on induced protection,"[1]; 0.15 mg/ml GW9662 200 μL i.p., 50 pmoles glycolipid, FIG. 2C",no effect
same,Potency of tumor protection relative to α-ManCer and β-GalCer,"[1]; CT26 lung metastasis, 50 vs 5,000 pmoles",100 fold
same,Fewer lung nodules compared to vehicle control mice,"[1]; IFN-γ knockout mice, 50 pmoles, p=0.0079, FIG. 9A",50%
same,Protection in IFN-γ−/− mice when NOS was inhibited,"[1]; IFN-γ−/− mice, L-NAME, FIG. 10B",completely lost
same,Tumor protection in Jα18KO mice (lack only iNKT cells),"[1]; Jα18KO BALB/c mice, FIG. 2B",All protection was lost
same,Protection against CT26 lung metastasis,"[1]; WT BALB/c, glycolipid i.p. within one hour after tumor challenge, β-ManCer 50 pmoles, FIG. 2A",strong protection
same,Effect of NOS inhibition (L-NAME vs D-NAME) on tumor protection,[1]; 50 pmoles glycolipid,significantly inhibited protection
same,Effect of depletion of Gr-1+ cells on tumor protection,"[1]; anti-Gr-1 antibodies, FIG. 10D",no effect
same,Rank order of tumor protection,[1]; FIG. 2D,similarly protective
same,Inhibition of iNKT proliferation by CD1d-blocking antibody,[4]; 3.5-day stimulation,86%
same,Proliferation of iNKT cells (CFSE dilution),[4],40%
same,Proliferation of iNKT cells with CD1d-blocking antibody,"[4]; 3.5-day stimulation, CD1d-blocking antibody",5.4%
same,Cytokine production in vitro (overall),"[2]; IFN-γ, IL-4, IL-13",least cytokine production
same,Cytokines at concentrations less than 30 nM,[2]; glycolipid less than 30 nM,no cytokines detected
same,"Tumor protection against B16F10 melanoma lung metastasis, relative to α-GalCer",[6],at least as potent
same,Increase in IL-2 production over unloaded mCD1d,[7]; 24.9.E,25 fold
same,"IL-2 production, glycolipid-loaded mCD1d dimers","[7]; 24.9.E, 24 hours, no APCs, FIG. 5",able to induce IL-2 production
same,"IL-2 production, soluble glycolipid in the absence of CD1d","[7]; 24.9.E, FIG. 5",failed to induce IL-2 production above background
same,"IL-2 production, difference (less) versus α-GalCer",[7]; stated for the 24.9.E and DN32.D3 hybridomas together,10- to 50 fold
same,"IFN-γ production on re-stimulation, compared to cells from vehicle-treated mice",[5],slight reduction
same,"Splenocyte proliferation on re-stimulation, compared to cells from vehicle-treated mice",[5],slight reduction
same,IFN-γ in plasma,[3],no substantial increase
same,IL-12 in plasma,[3]; 50 pmoles i.p.,only a modest increase
same,TNF-α in plasma,[3]; 50 pmoles i.p.,only a modest increase
same,IL-4 in plasma,[3]; 50 pmoles i.p.,no substantial increase
same,IL-13 in plasma,[3]; 50 pmoles i.p.,no substantial increase
same,Increase in IL-2 production over unloaded mCD1d,[8]; DN32.D3,over 500 fold
same,"IL-2 production, glycolipid-loaded mCD1d dimers","[8]; DN32.D3, 24 hours, no APCs, FIG. 5",able to induce IL-2 production
same,"IL-2 production, soluble glycolipid in the absence of CD1d","[8]; DN32.D3, FIG. 5",failed to induce IL-2 production above background
same,Upregulation of CD25 and CD69 on iNKT cells,[9],induced upregulation
